Results from publication PMC6804443 (Acta Pharmaceutica Sinica. B, 2019).

What was measured:
UGT2B15 = target: T1, UGT2B15 (Homo sapiens, UniProt P54855); conditions: read-out: Km as UGT2B15 substrate; cited from earlier work
T1 sequence (P54855 24-530): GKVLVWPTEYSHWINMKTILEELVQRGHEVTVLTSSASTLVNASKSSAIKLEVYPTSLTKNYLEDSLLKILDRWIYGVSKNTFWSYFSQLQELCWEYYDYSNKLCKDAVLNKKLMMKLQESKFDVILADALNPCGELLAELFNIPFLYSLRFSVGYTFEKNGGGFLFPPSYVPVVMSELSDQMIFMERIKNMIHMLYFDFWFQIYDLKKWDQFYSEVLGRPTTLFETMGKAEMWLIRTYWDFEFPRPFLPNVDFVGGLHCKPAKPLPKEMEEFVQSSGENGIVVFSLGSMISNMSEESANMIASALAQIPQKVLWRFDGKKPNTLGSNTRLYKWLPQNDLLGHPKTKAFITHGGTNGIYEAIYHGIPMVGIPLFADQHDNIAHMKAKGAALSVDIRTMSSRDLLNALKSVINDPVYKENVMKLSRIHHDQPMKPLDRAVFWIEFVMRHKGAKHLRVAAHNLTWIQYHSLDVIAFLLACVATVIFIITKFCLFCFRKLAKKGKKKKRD

[1] = XueBiJing compounds; cited from earlier work
[2] = cited from earlier work; for fu-p (unbound fraction in plasma): human plasma
[3] = tested on: P450 enzymes, UGTs, SULTs, OATP1B1/1B3, OAT1/3, OCT2, MATE1/2-K, MDR1, BCRP; conditions: cited from earlier work
[4] = XueBiJing compounds, cited from earlier work; for LogD(7.4): pH 7.4
[5] = ref Supporting Information Table S2; cited from earlier work
[6] = format: in vivo; conditions: human; XueBiJing at label dose 100 mL
OAT3 = target: T2, OAT3 (Homo sapiens, UniProt Q8TCC7); format: in vitro ADME
T2 sequence (Q8TCC7 1-542): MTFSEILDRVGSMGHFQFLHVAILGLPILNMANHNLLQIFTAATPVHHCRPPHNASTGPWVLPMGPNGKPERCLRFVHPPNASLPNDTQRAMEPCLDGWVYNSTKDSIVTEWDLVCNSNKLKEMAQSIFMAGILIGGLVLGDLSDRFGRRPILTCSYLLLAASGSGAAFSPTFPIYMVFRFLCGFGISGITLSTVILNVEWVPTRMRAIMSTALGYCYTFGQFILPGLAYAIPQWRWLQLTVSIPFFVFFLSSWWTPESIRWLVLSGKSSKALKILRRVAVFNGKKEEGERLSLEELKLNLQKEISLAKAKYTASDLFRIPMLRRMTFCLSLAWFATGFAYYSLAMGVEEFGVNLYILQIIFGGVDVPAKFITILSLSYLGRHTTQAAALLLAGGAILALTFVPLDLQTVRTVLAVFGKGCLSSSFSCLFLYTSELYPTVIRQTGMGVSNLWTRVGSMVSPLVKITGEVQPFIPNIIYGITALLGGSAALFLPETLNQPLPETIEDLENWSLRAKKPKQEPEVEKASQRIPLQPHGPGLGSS

CYP1A2 = conditions: higher concentrations; range over the named compounds and enzymes
CYP3A4 = conditions: higher concentrations; range over the named compounds and enzymes
[7] = tested on: human drug metabolizing enzymes and transporters; test: Inhibitory DDI index of XueBiJing compounds as perpetrators; conditions: XueBiJing at label dose; range over the named compounds
[8] = human, XueBiJing 100 mL via 75-min intravenous infusion

Structure (SMILES)	Km (UGT2B15) [µM]	Membrane permeability [1]	fu-p (unbound fraction in plasma) [2] [%]	Cmax [2, 8] [nM]	VSS [2, 8] [L/kg]	t1/2 [2, 8] [min]	Major elimination route ([2]; human)	Related metabolism and transport data (substrate status) [3]	pKa [4]	LogD(7.4) [4]	Effective concentration(s) [5] [µmol/L]	Unbound Cmax [6] [nM]	IC50 (OAT3) [µM]	mRNA-T/U ratio, CYP1A2 (CYP1A2)	mRNA-T/U ratio, CYP3A4 (CYP3A4)	DDI index for inhibition of CYP2C9, CYP2C19, OATP1B1, OATP1B3, OAT1 and/or OAT3 [7]
CCC/C=C1\OC(=O)C2=C1CC[C@@H](O)[C@@H]2O [X5, senkyunolide I]	18.4	Good	54	400	1.26	48	Hepatic glucuronidation, to form senkyunolide I-7-O-β-glucuronide (X6) (This results in formation of a glutathione conjugate, suggesting formation of electrophilic metabolite.)	Highly selective UGT2B15 substrate	12.8	0.8						
O=C(O)c1ccc(O)c(O)c1 [X11, protocatechuic acid]		Intermediate	79	40		30	Hepatic methylation and sulfation		4.5	−1.9	1 to 130	30	28 ± 7	4.0 to 9.6	4.0 to 9.6	0.00003–0.06
